Species on record: Rattus norvegicus
Experiment: DrugMatrix - Regimen: Daily Repeat
Type: toxicity, organism-based, Sprague-Dawley
Set-up: regimen Daily Repeat, gender Male, age 6-8 weeks
Details: in vivo, po, route oral GAVAGE, vehicle .5 % CMC; for ABSOLUTE BASOPHIL / ABSOLUTE EOSINOPHIL / ABSOLUTE LYMPHOCYTE / ABSOLUTE MONOCYTE / ABSOLUTE SEGMENTED NEUTROPHIL / BASOPHIL / EOSINOPHIL / ERYTHROCYTE COUNT / HEMATOCRIT / HEMOGLOBIN / LEUKOCYTE COUNT / LYMPHOCYTE / MEAN CORPUSCULAR HEMOGLOBIN / MEAN CORPUSCULAR HEMOGLOBIN CONCENTRATION / MEAN CORPUSCULAR VOLUME / MONOCYTE / NEUTROPHIL / NUCLEATED RED BLOOD CELLS / PLATELET COUNT: tissue Blood; for ALANINE AMINOTRANSFERASE / ALBUMIN / ALKALINE PHOSPHATASE / ASPARTATE AMINOTRANSFERASE / BLOOD UREA NITROGEN / CARBON DIOXIDE / CHLORIDE / CHOLESTEROL / CREATINE PHOSPHOKINASE / CREATININE / GLUCOSE / LACTATE DEHYDROGENASE / LIPASE / PHOSPHORUS / POTASSIUM / SODIUM / TOTAL BILIRUBIN / TOTAL PROTEIN / URIC ACID: tissue Plasma
[1] = 5 mg/kg, 72 h, dose level Low, time 3 day
[2] = 5 mg/kg, 120 h, dose level Low, time 5 day
[3] = 26 mg/kg, 72 h, dose level High, time 3 day
[4] = 26 mg/kg, 120 h, dose level High, time 5 day

Nc1nnc(-c2cccc(Cl)c2Cl)c(N)n1 [LAMOTRIGINE]
ABSOLUTE BASOPHIL [1]: 0 CELLS/uL | ABSOLUTE EOSINOPHIL [1]: 0 CELLS/uL | ABSOLUTE LYMPHOCYTE [1]: 10899.33 CELLS/uL | ABSOLUTE MONOCYTE [1]: 45.33 CELLS/uL | ABSOLUTE SEGMENTED NEUTROPHIL [1]: 922 CELLS/uL | BASOPHIL [1]: 0% | EOSINOPHIL [1]: 0% | ERYTHROCYTE COUNT [1]: 5.73 x10E6/uL | HEMATOCRIT [1]: 35.93% | HEMOGLOBIN [1]: 13.53 G/DL | LEUKOCYTE COUNT [1]: 11.87 x10E3/uL | LYMPHOCYTE [1]: 91.67% | MEAN CORPUSCULAR HEMOGLOBIN [1]: 23.7 pg | MEAN CORPUSCULAR HEMOGLOBIN CONCENTRATION [1]: 37.7 G/DL | MEAN CORPUSCULAR VOLUME [1]: 62.83 fL | MONOCYTE [1]: 0.33% | NEUTROPHIL [1]: 8% | NUCLEATED RED BLOOD CELLS [1]: 0.33 /100WBC | PLATELET COUNT [1]: 1386.33 x10E3/uL | ALANINE AMINOTRANSFERASE [1]: 59 u/L | ALBUMIN [1]: 4.23 G/DL | ALKALINE PHOSPHATASE [1]: 377.33 u/L | ASPARTATE AMINOTRANSFERASE [1]: 90.67 u/L | BLOOD UREA NITROGEN [1]: 15 mg/dL | CARBON DIOXIDE [1]: 25.67 mmol/L | CHLORIDE [1]: 103.33 MEQ/L | CHOLESTEROL [1]: 73.33 mg/dL | CREATINE PHOSPHOKINASE [1]: 322.33 u/L | CREATININE [1]: 0.43 mg/dL | GLUCOSE [1]: 152 mg/dL | LACTATE DEHYDROGENASE [1]: 339.67 u/L | LIPASE [1]: 10.33 u/L | PHOSPHORUS [1]: 13.67 mg/dL | POTASSIUM [1]: 6.72 MEQ/L | SODIUM [1]: 145.9 MEQ/L | TOTAL BILIRUBIN [1]: 0.2 mg/dL | TOTAL PROTEIN [1]: 5.77 G/DL | URIC ACID [1]: 1.6 mg/dL | ABSOLUTE BASOPHIL [2]: 0 CELLS/uL | ABSOLUTE EOSINOPHIL [2]: 56.33 CELLS/uL | ABSOLUTE LYMPHOCYTE [2]: 12053 CELLS/uL | ABSOLUTE MONOCYTE [2]: 415 CELLS/uL | ABSOLUTE SEGMENTED NEUTROPHIL [2]: 1309 CELLS/uL | BASOPHIL [2]: 0% | EOSINOPHIL [2]: 0.33% | ERYTHROCYTE COUNT [2]: 5.33 x10E6/uL | HEMATOCRIT [2]: 35.73% | HEMOGLOBIN [2]: 13.3 G/DL | LEUKOCYTE COUNT [2]: 13.83 x10E3/uL | LYMPHOCYTE [2]: 87% | MEAN CORPUSCULAR HEMOGLOBIN [2]: 25 pg | MEAN CORPUSCULAR HEMOGLOBIN CONCENTRATION [2]: 37.23 G/DL | MEAN CORPUSCULAR VOLUME [2]: 67.17 fL | MONOCYTE [2]: 3% | NEUTROPHIL [2]: 9.67% | NUCLEATED RED BLOOD CELLS [2]: 0 /100WBC | PLATELET COUNT [2]: 1207 x10E3/uL | ALANINE AMINOTRANSFERASE [2]: 54.33 u/L | ALBUMIN [2]: 4.4 G/DL | ALKALINE PHOSPHATASE [2]: 422.67 u/L | ASPARTATE AMINOTRANSFERASE [2]: 86.33 u/L | BLOOD UREA NITROGEN [2]: 16.67 mg/dL | CARBON DIOXIDE [2]: 23 mmol/L | CHLORIDE [2]: 104 MEQ/L | CHOLESTEROL [2]: 71.67 mg/dL | CREATINE PHOSPHOKINASE [2]: 218.33 u/L | CREATININE [2]: 0.41 mg/dL | GLUCOSE [2]: 152.67 mg/dL | LACTATE DEHYDROGENASE [2]: 99.67 u/L | LIPASE [2]: 10.33 u/L | PHOSPHORUS [2]: 12.27 mg/dL | POTASSIUM [2]: 6.44 MEQ/L | SODIUM [2]: 149.03 MEQ/L | TOTAL BILIRUBIN [2]: 0.17 mg/dL | TOTAL PROTEIN [2]: 6.17 G/DL | URIC ACID [2]: 1.8 mg/dL | ABSOLUTE BASOPHIL [3]: 0 CELLS/uL | ABSOLUTE EOSINOPHIL [3]: 0 CELLS/uL | ABSOLUTE LYMPHOCYTE [3]: 13769 CELLS/uL | ABSOLUTE MONOCYTE [3]: 39.33 CELLS/uL | ABSOLUTE SEGMENTED NEUTROPHIL [3]: 558.33 CELLS/uL | BASOPHIL [3]: 0% | EOSINOPHIL [3]: 0% | ERYTHROCYTE COUNT [3]: 5.86 x10E6/uL | HEMATOCRIT [3]: 39.23% | HEMOGLOBIN [3]: 14.47 G/DL | LEUKOCYTE COUNT [3]: 14.37 x10E3/uL | LYMPHOCYTE [3]: 95.67% | MEAN CORPUSCULAR HEMOGLOBIN [3]: 24.67 pg | MEAN CORPUSCULAR HEMOGLOBIN CONCENTRATION [3]: 36.9 G/DL | MEAN CORPUSCULAR VOLUME [3]: 66.93 fL | MONOCYTE [3]: 0.33% | NEUTROPHIL [3]: 4% | NUCLEATED RED BLOOD CELLS [3]: 0.33 /100WBC | PLATELET COUNT [3]: 1200 x10E3/uL | ALANINE AMINOTRANSFERASE [3]: 73 u/L | ALBUMIN [3]: 4.6 G/DL | ALKALINE PHOSPHATASE [3]: 355.33 u/L | ASPARTATE AMINOTRANSFERASE [3]: 139.67 u/L | BLOOD UREA NITROGEN [3]: 13 mg/dL | CARBON DIOXIDE [3]: 24.67 mmol/L | CHLORIDE [3]: 102 MEQ/L | CHOLESTEROL [3]: 91 mg/dL | CREATINE PHOSPHOKINASE [3]: 1448.33 u/L | CREATININE [3]: 0.29 mg/dL | GLUCOSE [3]: 138 mg/dL | LACTATE DEHYDROGENASE [3]: 373.67 u/L | LIPASE [3]: 10.33 u/L | PHOSPHORUS [3]: 13.67 mg/dL | POTASSIUM [3]: 7.33 MEQ/L | SODIUM [3]: 146.47 MEQ/L | TOTAL BILIRUBIN [3]: 0.2 mg/dL | TOTAL PROTEIN [3]: 6.5 G/DL | URIC ACID [3]: 3 mg/dL | ABSOLUTE BASOPHIL [4]: 0 CELLS/uL | ABSOLUTE EOSINOPHIL [4]: 0 CELLS/uL | ABSOLUTE LYMPHOCYTE [4]: 13660 CELLS/uL | ABSOLUTE MONOCYTE [4]: 181.67 CELLS/uL | ABSOLUTE SEGMENTED NEUTROPHIL [4]: 558.33 CELLS/uL | BASOPHIL [4]: 0% | EOSINOPHIL [4]: 0% | ERYTHROCYTE COUNT [4]: 5.81 x10E6/uL | HEMATOCRIT [4]: 37.13% | HEMOGLOBIN [4]: 14.03 G/DL | LEUKOCYTE COUNT [4]: 14.4 x10E3/uL | LYMPHOCYTE [4]: 95% | MEAN CORPUSCULAR HEMOGLOBIN [4]: 24.17 pg | MEAN CORPUSCULAR HEMOGLOBIN CONCENTRATION [4]: 37.8 G/DL | MEAN CORPUSCULAR VOLUME [4]: 63.93 fL | MONOCYTE [4]: 1.33% | NEUTROPHIL [4]: 3.67% | NUCLEATED RED BLOOD CELLS [4]: 0.33 /100WBC | PLATELET COUNT [4]: 1279.33 x10E3/uL | ALANINE AMINOTRANSFERASE [4]: 64.67 u/L | ALBUMIN [4]: 4.4 G/DL | ALKALINE PHOSPHATASE [4]: 331.33 u/L | ASPARTATE AMINOTRANSFERASE [4]: 78 u/L | BLOOD UREA NITROGEN [4]: 18.67 mg/dL | CARBON DIOXIDE [4]: 27.67 mmol/L | CHLORIDE [4]: 103 MEQ/L | CHOLESTEROL [4]: 75.67 mg/dL | CREATINE PHOSPHOKINASE [4]: 225 u/L | CREATININE [4]: 0.28 mg/dL | GLUCOSE [4]: 163 mg/dL | LACTATE DEHYDROGENASE [4]: 110.33 u/L | LIPASE [4]: 10.67 u/L | PHOSPHORUS [4]: 12.43 mg/dL | POTASSIUM [4]: 7.41 MEQ/L | SODIUM [4]: 147.97 MEQ/L | TOTAL BILIRUBIN [4]: 0.2 mg/dL | TOTAL PROTEIN [4]: 6.2 G/DL | URIC ACID [4]: 2.03 mg/dL
